Laboratory results: patent publication US20030032158A1, “Method of modulating the efficiency of translation termination and degradation of aberrant mRNA involving a surveillance complex comprising human Upf1p,eucaryotic release factor 1 and eucaryotic release factor 3” (University of Medicine and Dentistry of New Jersey, priority 1998, published 2003)
Entries after “also recorded” stand apart in the source; their conditions may differ.

Columns and labels:
Upf1p-eRF3 interaction = target: T1, Upf1p-eRF3 interaction (Saccharomyces cerevisiae, UniProt P30771); test: GST-eRF3 pull-down of purified FLAG-Upf1p, immunoblot; type: binding, yeast; conditions: 1 mM ATP, 1 mM GTP or 100 μg/ml poly(U) RNA
T1 construct: made in house; host or cells: GST-eRF3: E. coli BL21(DE3) pLysS with pGEX2T-SUP35
T1 sequence (P30771 1-971): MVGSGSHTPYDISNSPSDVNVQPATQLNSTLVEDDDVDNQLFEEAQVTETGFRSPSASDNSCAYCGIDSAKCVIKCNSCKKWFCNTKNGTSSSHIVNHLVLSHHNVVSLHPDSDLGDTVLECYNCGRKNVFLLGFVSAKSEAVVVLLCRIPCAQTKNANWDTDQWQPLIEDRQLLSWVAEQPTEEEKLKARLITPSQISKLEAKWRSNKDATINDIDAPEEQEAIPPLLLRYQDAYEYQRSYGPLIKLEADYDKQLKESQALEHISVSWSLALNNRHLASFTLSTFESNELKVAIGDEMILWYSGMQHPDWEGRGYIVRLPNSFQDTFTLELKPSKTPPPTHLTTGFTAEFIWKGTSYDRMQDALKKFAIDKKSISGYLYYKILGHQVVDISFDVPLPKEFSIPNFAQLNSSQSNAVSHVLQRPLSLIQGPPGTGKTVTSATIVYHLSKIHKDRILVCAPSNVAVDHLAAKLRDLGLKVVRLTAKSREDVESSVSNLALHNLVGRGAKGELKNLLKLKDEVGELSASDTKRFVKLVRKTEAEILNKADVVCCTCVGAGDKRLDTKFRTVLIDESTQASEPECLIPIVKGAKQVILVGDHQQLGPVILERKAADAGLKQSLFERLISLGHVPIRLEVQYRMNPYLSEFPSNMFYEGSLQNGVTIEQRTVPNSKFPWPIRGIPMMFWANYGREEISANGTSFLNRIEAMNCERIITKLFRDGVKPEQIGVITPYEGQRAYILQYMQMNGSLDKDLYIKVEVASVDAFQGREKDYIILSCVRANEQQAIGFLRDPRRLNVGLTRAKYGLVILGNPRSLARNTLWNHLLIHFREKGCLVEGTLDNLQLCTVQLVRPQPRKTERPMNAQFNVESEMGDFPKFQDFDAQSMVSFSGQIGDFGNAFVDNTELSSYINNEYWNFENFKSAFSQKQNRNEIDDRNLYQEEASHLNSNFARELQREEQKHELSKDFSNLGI
Protocol: FIG. 3. eRF3 and RNA compete for binding to Upf1p. (A) Poly(U) RNA prevents Upf1p from binding to eRF3. Reaction mixtures were prepared as described in FIG. 1B, except that binding was performed in TBSTB (TBST with 100 μg/ml BSA) and reaction mixtures contained 1 mM ATP, 1 mM GTP, or 100 μg/ml poly(U) RNA as indicated above each lane. The reaction mixtures were mixed for 1 hour at 4° C. Following mixing, the complexes were washed as in FIG. 1B with TBSTB containing 1 mM ATP, 1 mM GTP, or 100 μg/ml poly(U) RNA as indicated above each lane. […] Reaction mixtures were prepared as in FIG. 1B, in the presence or absence of […] poly(U) RNA as indicated above each lane. (C) eRF3 inhibits Upf1p RNA binding. A uniformly labeled 32 nt RNA was synthesized by SP6 transcription of SstI digested pGEM5Zf(+). The indicated amounts of GST-eRF3, were incubated with 200 ng Upf1p for 15 minutes at 4° C. 50 fmol of the RNA substrate was added and incubated for 5 minutes. Stop solution was added, and reactions electrophoresed in a 4.5% native PAGE gel (0.5×TBE, 30:0.5 acrylamide:bisacrylamide, with 5% glycerol). […]
Further, purified Flag-Upf1p with poly(U) RNA was incubated in the presence or absence of ATP. […] GST-eRF3 was added to the reaction mixtures and the Upf1-eRF3 interaction was monitored by immunoblotting analysis as before.

[1] = system: isogenic wild-type and upf3Δ strains; test: Paromomycin sensitivity, zone of growth inhibition around a disc on a lawn of cells; type: cell-based, Saccharomyces cerevisiae
Protocol: FIG. 11. Paromomycin sensitivity was monitored in isogenic wild-type and upf3Δ strains by placing a disc containing 1 mg of paromomycin onto a lawn of cells and determining the zone of growth inhibition around the disc.
Paromomycin sensitivity was monitored in isogenic wild-type and upf3Δ strains by placing a disc containing 1 mg of paromomycin onto a lawn of cells and determining the zone of growth inhibition around the disc (FIG. 11).

[2] = system: −1 ribosomal frameshifting; test: β-galactosidase assay of −1 ribosomal frameshifting with plasmids pF8 / pTI25; type: cell-based, Saccharomyces cerevisiae
Protocol: Killer assays, frameshifting assays and extraction and analysis of total nucleic acids:The killer assay was carried out as previously described (Dinman, J. D., and Wickner, R. B. (1992)) by replica plating colonies onto 4.7 MB plates newly seeded with a lawn of 5×47 killer indicator cells (0.5 ml of a suspension at 1 unit of optical density at 550 nm per ml per plate). After 2 days at 20° C., killer activity was observed as a zone of growth inhibition around the killer colonies. To quantitate loss of killer activity, colonies that had been identified as killer^+ were re-streaked for single colonies and the percentage of killer^− colonies were determined. The efficiencies of −1 frameshifting were determined as previously described (Cui, Y., Dinman, J. D., and Peltz, S. W. (1996); Dinman, J. D., Ruiz-Echevarria, M. J., Czaplinski, K. and Peltz, S. W. (1997b)) using the 0-frame control (pTI25) and −1 reporter (pF8) plasmids.
Methods to measure efficiencies of programmed ribosomal frameshifting in vivo have been described previously (Cui, Y., Dinman, J. D., and Peltz, S. W. (1996); Dinman, J. D., Icho, T., and Wickner, R. B. (1991); Dinman, J. D., Ruiz-Echevarria, M. J., Czaplinski, K. and Peltz, S. W. (1997b)). […] Similarly, the +1 ribosomal frameshift efficiency is calculated based on the pJD104 to pTI25 β-gal ratios. […]

[3] = system: isogenic wild-type and upf3Δ strains; conditions: cells harboring the mof4-1 allele of UPF1; previous results; cited from earlier work

Structure (SMILES): Nc1ncnc2c1ncn2[C@@H]1O[C@H](COP(=O)(O)OP(=O)(O)OP(=O)(O)O)[C@@H](O)[C@H]1O [ATP]
- Effect on interaction between Upf1p and eRF3 (Upf1p-eRF3 interaction): did not affect the interaction; also recorded: did not prevent association of Upf1p with eRF3

Structure (SMILES): Nc1nc2c(ncn2[C@@H]2O[C@H](COP(=O)(O)OP(=O)(O)OP(=O)(O)O)[C@@H](O)[C@H]2O)c(=O)[nH]1 [GTP]
- Effect on interaction between Upf1p and eRF3 (Upf1p-eRF3 interaction): not affected

Structure (SMILES): NC[C@@H]1O[C@H](O[C@H]2[C@@H](O)[C@H](O[C@@H]3[C@@H](O)[C@H](N)C[C@H](N)[C@H]3O[C@H]3O[C@H](CO)[C@@H](O)[C@H](O)[C@H]3N)O[C@@H]2CO)[C@H](N)[C@@H](O)[C@@H]1O [paromomycin]
- Paromomycin sensitivity (zone of growth inhibition) ([1]; upf1Δ or upf2Δ strains): Neither the upf1Δ or upf2Δ strains demonstrate hypersensitivity
- Paromomycin sensitivity (zone of growth inhibition) ([1]; upf3Δ strain vs isogenic wild-type, disc containing 1 mg of paromomycin): more sensitive to paromomycin than the isogenic wild-type strain
- β-galactosidase activity (−1 frameshift reporter) ([2]; upf3Δ cells carrying pF8, liquid media, different concentrations of the drug): increased continuously with increased concentrations of paromomycin
- β-galactosidase activity ([2]; wild-type cells containing pF8, or any strain carrying pTI25 (zero frame control)): unaffected
- Paromomycin sensitivity [3]: increased sensitivity to paromomycin than the isogenic wild-type strain
